The term IC50 denotes the midpoint of a concentration-inhibition curve. Lower therefore signals higher potency.

One experiment addresses c-MET (Homo sapiens, UniProt P08581). Nature of the experiment: MET luminescence-based enzyme assay (Kinase-Glo). The experiment is classed as biochemical. The protocol: The subscript designates positive or negative controls. The Z′ score for a robust screening assay should be ≧0.50. The typical threshold=μ+−3*σ+. Any value that falls below the threshold was designated a “hit”.
MET Luminescence-Based Enzyme Assay
MET kinase (see below), Kinase-Glo™ (Promega Cat#V6712).
Negative controls contained 10 μM staurosporine.
Background: Kinase-Glo measures the ATP left after a reaction by luminescence.

The next experiment has as its system GTL16 cells. In words: 96-well XTT cell survival assay (GTL16 cells). The class given is cell-based. The protocol: GTL16 cells were maintained in DMEM Medium supplemented with 10% fetal bovine serum (FBS) 2 mM L-Glutamine and 100 units penicillin/100 μg streptomycin, at 37° C. in 5% CO2.
Compounds were tested in the following assays in duplicate.
96-well XTT assay (GTL16 cells): One day prior to assay the growth media was aspirated off and assay media was added to cells. On the day of the assay, the cells were grown in assay media containing various concentrations of compounds (duplicates) on a 96-well flat bottom plate for 72 hours at 37° C. in 5% CO2. The starting cell number was 5000 cells per well and volume was 120 μl. At the end of the 72-hour incubation, 40 μl of XTT labeling mixture (50:1 solution of sodium 3′-[1-(phenylaminocarbonyl)-3,4-tetrazolium]-bis (4-methoxy-6-nitro) benzene sulfonic acid hydrate and Electron-coupling reagent: PMS (N-methyl dibenzopyrazine methyl sulfate) were added to each well of the plate. After an additional 5 hours of incubation at 37° C., the absorbance reading at 450 nm with a background correction of 650 nm was measured with a spectrophotometer.
For orientation: Tetrazolium dyes change colour on reduction, which living cells bring about.

Chain of c-MET (P08581 1078-1345 limits assumed): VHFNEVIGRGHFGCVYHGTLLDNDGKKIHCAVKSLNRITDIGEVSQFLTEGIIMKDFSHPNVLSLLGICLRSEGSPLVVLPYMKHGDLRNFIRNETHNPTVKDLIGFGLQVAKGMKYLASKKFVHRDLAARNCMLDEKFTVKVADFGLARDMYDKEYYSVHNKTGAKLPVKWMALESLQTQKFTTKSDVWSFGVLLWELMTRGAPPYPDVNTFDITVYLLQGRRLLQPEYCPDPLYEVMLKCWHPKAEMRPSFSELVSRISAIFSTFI

As to “(2:1) mixture of 3-(7-Methyl-benzothiazol-6-ylsulfanyl)-6-(1-methyl-1H-pyrazol-4-yl)-[1,2,4]triazolo[4,3-b]pyridazine and 3-(5-Methyl-benzothiazol-6-ylsulfanyl)-6-(1-methyl-1H-pyrazol-4-yl)-[1,2,4]triazolo[4,3-b]pyridazine [Compound 8]”, the half-inhibitory concentration (IC50) against c-MET was less than 100 nM; in the experiment with GTL16 cells (72 hours), not above 100 nM.

Consider `Cc1ccc2nnc(Sc3ccc4ncc(-c5cnn(CCN6CCOCC6)c5)cc4c3)n2n1` [Compound 44, 6-(6-Methyl-[1,2,4]triazolo[4,3-b]pyridazin-3-ylsulfanyl)-3-[1-(2-morpholin-4-yl-ethyl)-1H-pyrazol-4-yl]-quinoline], for which the IC50 is less than 100 nM on c-MET and not above 100 nM in the experiment on GTL16 cells (Homo sapiens, GTL 16, 72 hours).

`CCN1CC(Cn2cc(-c3cnc4ccc(Sc5nnc6ccc(C)nn56)cc4c3)cn2)C1` [Compound 67, 3-[1-(1-Ethyl-azetidin-3-ylmethyl)-1H-pyrazol-4-yl]-6-(6-methyl-[1,2,4]triazolo[4,3-b]pyridazin-3-ylsulfanyl)-quinoline]: the IC50 was less than 100 nM on c-MET and not above 100 nM in the experiment with GTL16 cells (Homo sapiens, GTL 16, 72 hours).

As to `Cc1ccc2nnc(Sc3ccc4ncc(-c5cnn(CC(=O)O)c5)cc4c3)n2n1` [Compound 42, {4-[6-(6-Methyl-[1,2,4]triazolo[4,3-b]pyridazin-3-ylsulfanyl)-quinolin-3-yl]-pyrazol-1-yl}-acetic acid], the half-inhibitory concentration (IC50) was less than 100 nM at c-MET and 1000 to 10000 nM with GTL16 cells (Homo sapiens, GTL 16, 72 hours).

`CNC(=O)c1ccc(-c2ccc3nnc(Sc4cc5cccnc5cc4C)n3n2)cc1F` [Compound 18, 2-Fluoro-N-methyl-4-[3-(7-methyl-quinolin-6-ylsulfanyl)-[1,2,4]triazolo[4,3-b]pyridazin-6-yl]-benzamide]: the IC50 was less than 100 nM against c-MET and not above 100 nM in the experiment with GTL16 cells (Homo sapiens, GTL 16, 72 hours).

`Cn1cc(-c2ccc3nnc(Sc4ccc5ncn(C)c5c4)n3n2)cn1` [Compound 25, 3-(3-Methyl-3H-benzoimidazol-5-ylsulfanyl)-6-(1-methyl-1H-pyrazol-4-yl)-[1,2,4]triazolo[4,3-b]pyridazine]: the IC50 against c-MET was less than 100 nM; in the experiment on GTL16 cells (Homo sapiens, GTL 16, 72 hours) it was not above 100 nM.

As for `Cn1cc(-c2ccc3nnc(Sc4ccc5ncc(NC(=O)OC(C)(C)C)cc5c4)n3n2)cn1` [Compound 35, {6-[6-(1-Methyl-1H-pyrazol-4-yl)-[1,2,4]triazolo[4,3-b]pyridazin-3-ylsulfanyl]-quinolin-3-yl}-carbamic acid tert-butyl ester], the IC50 at c-MET was less than 100 nM; with GTL16 cells (Homo sapiens, GTL 16, 72 hours), not above 100 nM.

With `Cn1cc(-c2ccc3nnc(Sc4ccc5ncsc5c4)n3n2)cn1` [Compound 14, 3-(Benzothiazol-6-ylsulfanyl)-6-(1-methyl-1H-pyrazol-4-yl)-[1,2,4]triazolo[4,3-b]pyridazine], the 50% inhibitory concentration (IC50) on c-MET was less than 100 nM; with GTL16 cells (Homo sapiens, GTL 16, 72 hours), not above 100 nM.

Consider `Cc1ccc2nnc(Sc3ccc4ncc(-c5cnn(C(C)(C)C(=O)O)c5)cc4c3)n2n1` [Compound 45, 2-Methyl-2-{4-[6-(6-methyl-[1,2,4]triazolo[4,3-b]pyridazin-3-ylsulfanyl)-quinolin-3-yl]-pyrazol-1-yl}-propionic acid], for which the concentration for half-maximal inhibition (IC50) is less than 100 nM at c-MET and 1000 to 10000 nM in the experiment on GTL16 cells (Homo sapiens, GTL 16, 72 hours).

`Fc1cccc(-c2ccc3nnc(Sc4ccc5ncsc5c4)n3n2)c1` [Compound 6, 3-(Benzothiazol-6-ylsulfanyl)-6-(3-fluoro-phenyl)-[1,2,4]triazolo[4,3-b]pyridazine]: the IC50 on c-MET lay within 100 to 1000 nM; in the experiment with GTL16 cells (Homo sapiens, GTL 16, 72 hours) it was 100 to 1000 nM.

Consider `Cn1cc(-c2ccc3nnc(Sc4ccc5nccc(OCCO)c5c4)n3n2)cn1` [Compound 50, 2-{6-[6-(1-Methyl-1H-pyrazol-4-yl)-[1,2,4]triazolo[4,3-b]pyridazin-3-ylsulfanyl]-quinolin-4-yloxy}-ethanol], for which the IC50 is less than 100 nM against c-MET and not above 100 nM in the experiment with GTL16 cells (Homo sapiens, GTL 16, 72 hours).

`CCn1cc(-c2cnc3ccc(Sc4nnc5ccc(C)nn45)cc3c2)cn1` [Compound 66, 3-(1-Ethyl-1H-pyrazol-4-yl)-6-(6-methyl-[1,2,4]triazolo[4,3-b]pyridazin-3-ylsulfanyl)-quinoline]: the half-inhibitory concentration (IC50) against c-MET is less than 100 nM; in the experiment on GTL16 cells (Homo sapiens, GTL 16, 72 hours) it was not above 100 nM.

`CNc1ccc2nnc(Sc3ccc4ncc(-c5cnn(C)c5)cc4c3)n2n1` [Compound 68, Methyl-{3-[3-(1-methyl-1H-pyrazol-4-yl)-quinolin-6-ylsulfanyl]-[1,2,4]triazolo[4,3-b]pyridazin-6-yl}-amine]: the concentration for half-maximal inhibition (IC50) against c-MET is less than 100 nM; with GTL16 cells (Homo sapiens, GTL 16, 72 hours), not above 100 nM.

For the compound `Cn1cc(-c2ccc3nnc(Sc4ccc5ncncc5c4)n3n2)cn1` [Compound 12, 6-[6-(1-Methyl-1H-pyrazol-4-yl)-[1,2,4]triazolo[4,3-b]pyridazin-3-ylsulfanyl]-quinazoline], the IC50 against c-MET lay in the range of 100 to 1000 nM; in the experiment on GTL16 cells (Homo sapiens, GTL 16, 72 hours), 100 to 1000 nM.

As for `Cc1cc2ncccc2cc1Sc1nnc2ccc(-c3cnn(C)c3)nn12` [Compound 16, 7-Methyl-6-[6-(1-methyl-1H-pyrazol-4-yl)-[1,2,4]triazolo[4,3-b]pyridazin-3-ylsulfanyl]-quinoline], the IC50 against c-MET is less than 100 nM; in the experiment with GTL16 cells (Homo sapiens, GTL 16, 72 hours) it was not above 100 nM.

With `Fc1cccc(-c2ccc3nnc(Sc4ccc5nncn5c4)n3n2)c1` [Compound 7, 6-(3-Fluoro-phenyl)-3-([1,2,4]triazolo[4,3-a]pyridin-6-ylsulfanyl)-[1,2,4]triazolo[4,3-b]pyridazine], the IC50 against c-MET lay within 1000 to 10000 nM; in the experiment on GTL16 cells (Homo sapiens, GTL 16, 72 hours), 1000 to 10000 nM.

As to `c1ccc(-c2ccc3nnc(Sc4ccc5ncccc5c4)n3n2)cc1` [Compound 1, 6-(6-Phenyl-[1,2,4]triazolo[4,3-b]pyridazin-3-ylsulfanyl)-quinoline], the half-maximal inhibitory concentration (IC50) against c-MET was less than 100 nM; in the experiment with GTL16 cells (Homo sapiens, GTL 16, 72 hours) it was not above 100 nM.

In the case of `Cc1ccc2nnc(Sc3cc4cc(-c5cnn(C)c5)cnc4cc3F)n2n1` [Compound 52, 7-Fluoro-3-(1-methyl-1H-pyrazol-4-yl)-6-(6-methyl-[1,2,4]triazolo[4,3-b]pyridazin-3-ylsulfanyl)-quinoline], the concentration for half-maximal inhibition (IC50) against c-MET is less than 100 nM; with GTL16 cells (Homo sapiens, GTL 16, 72 hours), not above 100 nM.

As for `Fc1cccc(-c2cnc3nnc(Sc4ccc5ncccc5c4)n3n2)c1` [Compound 9, 6-[6-(3-Fluoro-phenyl)-[1,2,4]triazolo[4,3-b][1,2,4]triazin-3-ylsulfanyl]-quinoline], the IC50 at c-MET is less than 100 nM; in the experiment on GTL16 cells (Homo sapiens, GTL 16, 72 hours), not above 100 nM.

Turning to `c1cnc2ccc(Sc3nnc4ccc(-c5cn[nH]c5)nn34)cc2c1` [Compound 39, 6-[6-(1H-Pyrazol-4-yl)-[1,2,4]triazolo[4,3-b]pyridazin-3-ylsulfanyl]-quinoline], the IC50 at c-MET is less than 100 nM; with GTL16 cells (Homo sapiens, GTL 16, 72 hours), 100 to 1000 nM.

As to `CNC(=O)c1ccc(-c2ccc3nnc(Sc4ccc5ncccc5c4)n3n2)cc1F` [Compound 11, 2-Fluoro-N-methyl-4-[3-(quinolin-6-ylsulfanyl)-[1,2,4]triazolo[4,3-b]pyridazin-6-yl]-benzamide], the IC50 was less than 100 nM at c-MET and 100 to 1000 nM in the experiment with GTL16 cells (Homo sapiens, GTL 16, 72 hours).

For `CCN1CC(n2cc(-c3cnc4ccc(Sc5nnc6ccc(C)nn56)cc4c3)cn2)C1` [Compound 61, 3-[1-(1-Ethyl-azetidin-3-yl)-1H-pyrazol-4-yl]-6-(6-methyl-[1,2,4]triazolo[4,3-b]pyridazin-3-ylsulfanyl)-quinoline], the concentration for half-maximal inhibition (IC50) is less than 100 nM on c-MET and not above 100 nM in the experiment with GTL16 cells (Homo sapiens, GTL 16, 72 hours).

(Values after patent publication US8507489B2, “Bicyclic triazoles as protein kinase modulators” (SGX Pharmaceuticals, Inc., priority 2006, dated 2013).)
